Laboratory results as given in US4987148A, “Biocidal 4,5-dichloro-1,2-dithiol-3-one composition” (Yoshitomi Pharmaceutical Industries, Ltd., priority 1989, dated 1991).
Read-outs that look alike come from different tables or passages of the source.

Key:
[1] = cited from earlier work
[2] = Crystallization and redissolution test; type: physicochemical
Description: In transparent 50 ml-glass vessels, the dithiol compound and N-methyl-2-pyrrolidone were mixed at the prescribed concentrations, and dissolved, if necessary, under heating. The crystals were yielded by cooling these solutions suitably, under the observation of the state. The crystallizing temperature was measured. The crystallized solutions were heated, and the temperature at which the crystals began to dissolve was measured.

[3] = Storage and stability test in polyethylene bottle in can at 60° C. (HPLC remaining rate; half life); type: physicochemical; conditions: for Half life of dithiol compound: first order
Description: The dithiol compound and N-methyl-2-pyrrolidone were mixed at the concentrations as shown in Table 4 to prepare compositions. Each 50 ml of the compositions was served in a polyethylene bottle, and the bottle was further served tightly in a can with a lid.
The storage and stability tests were conducted by leaving the compositions standing at 60° C. for 11 days (or 15 days) and 30 days in the above state and examining the remaining rate of the dithiol compound based upon the measurement of area ratio at 317 nm by means of high performance liquid chromatography (HPLC).
Since the decomposition rate of the dithiol compound fit to the first order reaction, a half life of the dithiol compound (t 1/2), in the each compositions at 60° C., was calculated with the following equation: […]
wherein α represents a remaining percentage of the dithiol compound, k represents a decomposition rate constant of the dithiol compound and t represents a number of days.

[4] = cited from earlier work; remark: listed apart in the source
[5] = tested on: viable microbes in industrial cooling water, washing water, raw water, power water; conditions: raw water and power water, Kokoku No. 14294/1977; cited from earlier work
[6] = Storage and stability test in transparent glass vessels at 60° C. (50% compositions, HPLC remaining rate); type: physicochemical
Description: In transparent 50 ml-glass vessels, a 50% N-methyl-2-pyrrolidone composition of the dithiol compound (the composition of the present invention), a 50% dimethylformamide composition containing 5 weight % diethylene glycol monomethyl ether, a 50% N-vinyl-2-pyrrolidone composition and a 50% 2-pyrrolidone composition of the dithiol compound (compositions for comparison) were prepared, and the storage and stability tests were conducted.
The tests were conducted by leaving the compositions standing at 60° C. for 15 days and 30 days and examining the remaining rate of the dithiol compound based upon the measurement of area ratio at 317 nm by means of high performance liquid chromatography (HPLC).

[7] = powdery form; cited from earlier work
[8] = cited from earlier work; remark: listed apart in the source
[9] = State of compositions (crystallization, solidification, scoopability, stability) in storage and at low temperature; type: physicochemical; conditions: compositions with N-methyl-2-pyrrolidone
[10] = Solubility test: dithiol compound in 100 g of respective solvents at 25° C.; type: physicochemical
Description: The solubilities (weight %) of the dithiol compound in 100 g of the respective solvents shown in Table 1 at 25° C. ar indicated in Table 1.

[11] = 10 weight % in N-methyl-2-pyrrolidone
[12] = 20 weight % in N-methyl-2-pyrrolidone
[13] = 30 weight % in N-methyl-2-pyrrolidone
[14] = 40 weight % in N-methyl-2-pyrrolidone
[15] = 50 weight % in N-methyl-2-pyrrolidone
[16] = 60 weight % in N-methyl-2-pyrrolidone
[17] = 70 weight % in N-methyl-2-pyrrolidone
[18] = 80 weight % in N-methyl-2-pyrrolidone

**Q.** With CN1CCCC1=O [N-Methyl-2-pyrrolidone] as the compound, how does the “Odor, inflammability, toxicity” value ([1]; solvent N-Methyl-2-pyrrolidone) read?
**A.** Its value is “few problems in terms of odor, inflammability, toxicity”.

**Q.** Which Toxicity ([1]; solvent) does the source give for CN(C)C=O [dimethylformamide] here?
**A.** The Toxicity was “inherently so strong in toxicity”.

**Q.** What does the source list for O=c1ssc(Cl)c1Cl [dithiol compound, 4,5-Dichloro-l,2-dithiol-3-one]?
**A.** Crystallizing temperature [2, 11]: -29.3 °C; Crystals-dissolving temperature [2, 11]: -23.7 °C; Crystallizing temperature [2, 12]: -27.8 °C; Crystals-dissolving temperature [2, 12]: -22.7 °C; Crystallizing temperature [2, 13]: -22.0 °C; Crystals-dissolving temperature [2, 13]: -16.2 °C; Crystallizing temperature [2, 14]: -18.8 °C; Crystals-dissolving temperature [2, 14]: -9.2 °C; Crystallizing temperature [2, 15]: -18.3 °C; Crystals-dissolving temperature [2, 15]: 4.7 °C; Crystallizing temperature [2, 16]: -13.3 °C; Crystals-dissolving temperature [2, 16]: 12.0 °C; Crystallizing temperature [2, 17]: 6.0 °C; Crystals-dissolving temperature [2, 17]: 26.5 °C; Crystallizing temperature [2, 18]: 26.8 °C; Crystals-dissolving temperature [2, 18]: 36.2 °C; Remaining percentage of dithiol compound ([3]; 5% in N-methyl-2-pyrrolidone, 15 days): 70.8%; Remaining percentage of dithiol compound ([3]; 5% in N-methyl-2-pyrrolidone, 30 days): 58.3%; Half life of dithiol compound ([3]; 5% in N-methyl-2-pyrrolidone): 39 days; Remaining percentage of dithiol compound ([3]; 10% in N-methyl-2-pyrrolidone, 11 days): 90.5%; Remaining percentage of dithiol compound ([3]; 10% in N-methyl-2-pyrrolidone, 30 days): 83.2%; Half life of dithiol compound ([3]; 10% in N-methyl-2-pyrrolidone): 103 days; Remaining percentage of dithiol compound ([3]; 15% in N-methyl-2-pyrrolidone, 11 days): 93.7%; Remaining percentage of dithiol compound ([3]; 15% in N-methyl-2-pyrrolidone, 30 days): 87.4%; Half life of dithiol compound ([3]; 15% in N-methyl-2-pyrrolidone): 145 days; Remaining percentage of dithiol compound ([3]; 20% in N-methyl-2-pyrrolidone, 11 days): 93.8%; Remaining percentage of dithiol compound ([3]; 20% in N-methyl-2-pyrrolidone, 30 days): 88.2%; Half life of dithiol compound ([3]; 20% in N-methyl-2-pyrrolidone): 153 days; Remaining percentage of dithiol compound ([3]; 25% in N-methyl-2-pyrrolidone, 11 days): 94.3%; Remaining percentage of dithiol compound ([3]; 25% in N-methyl-2-pyrrolidone, 30 days): 89.0%; Half life of dithiol compound ([3]; 25% in N-methyl-2-pyrrolidone): 165 days; Remaining percentage of dithiol compound ([3]; 30% in N-methyl-2-pyrrolidone, 11 days): 95.6%; Remaining percentage of dithiol compound ([3]; 30% in N-methyl-2-pyrrolidone, 30 days): 88.8%; Half life of dithiol compound ([3]; 30% in N-methyl-2-pyrrolidone): 174 days; Remaining percentage of dithiol compound ([3]; 35% in N-methyl-2-pyrrolidone, 11 days): 95.7%; Remaining percentage of dithiol compound ([3]; 35% in N-methyl-2-pyrrolidone, 30 days): 89.3%; Half life of dithiol compound ([3]; 35% in N-methyl-2-pyrrolidone): 181 days; Remaining percentage of dithiol compound ([3]; 40% in N-methyl-2-pyrrolidone, 11 days): 96.6%; Remaining percentage of dithiol compound ([3]; 40% in N-methyl-2-pyrrolidone, 30 days): 90.4%; Half life of dithiol compound ([3]; 40% in N-methyl-2-pyrrolidone): 209 days; Remaining percentage of dithiol compound ([3]; 50% in N-methyl-2-pyrrolidone, 15 days): 97.3%; Remaining percentage of dithiol compound ([3]; 50% in N-methyl-2-pyrrolidone, 30 days): 93.3%; Half life of dithiol compound ([3]; 50% in N-methyl-2-pyrrolidone): 300 days; Stability in aqueous solution ([4]; aqueous solution): very unstable in the obtained aqueous solution and susceptible to hydrolysis in a short period of time; Solubility in water ([4]; water): below 1%; Slime control [5]: excellent slime control agent; Remaining percentage of dithiol compound ([6]; 50% in 2-pyrrolidone, 60° C., 15 days): 38.9%; Remaining percentage of dithiol compound ([6]; 50% in 2-pyrrolidone, 60° C., 30 days): 18.0%; Remaining percentage of dithiol compound ([6]; 50% in Dimethylformamide containing 5 weight % diethylene glycol monomethyl ether, 60° C., 15 days): 94.2%; Remaining percentage of dithiol compound ([6]; 50% in Dimethylformamide containing 5 weight % diethylene glycol monomethyl ether, 60° C., 30 days): 84.7%; Remaining percentage of dithiol compound ([6]; 50% in N-methyl-2-pyrrolidone, 60° C., 15 days): 97.3%; Remaining percentage of dithiol compound ([6]; 50% in N-methyl-2-pyrrolidone, 60° C., 30 days): 93.3%; Observation on mixing with N-vinyl-2-pyrrolidone ([6]; N-Vinyl-2-pyrrolidone composition could not be obtained, in a few minutes after mixing): exothermic polymerization reaction occurred intensively; Decomposition of dithiol compound in the composition of the invention ([6]; in N-methyl-2-pyrrolidone, left standing 15 days and 30 days, 60° C.): scarcely decomposed; Skin irritancy [7]: highly skin-irritant; Storage and stability of the dithiol compound ([8]; diethylene glycol monomethyl ether / dimethylformamide preparations, long period): insufficient to storage and stability of the dithiol compound over a long period; Solubility of the dithiol compound ([8]; in 1,2-bis(bromoacetoxy)ethane, U.S. Pat. No. 4647577): about 22%; Solubility of the dithiol compound ([8]; in mixed solvent of diethylene glycol monomethyl ether and dimethylformamide, 25° C., Kokoku No. 23721/1987): about 67 weight %; Storage and stability of the effective ingredient [9]: extremely high; Solubility ([10]; in 1,2-Bis(bromoacetoxy)ethane): 21.9 weight %; Solubility ([10]; in 2-Pyrrolidone): 51.0 weight %; Amount by weight of dissolved dithiol compound ([10]; in 100 g 1,2-Bis(bromoacetoxy)ethane): 28 g; Amount by weight of dissolved dithiol compound ([10]; in 100 g 2-Pyrrolidone): 104 g; Amount by weight of dissolved dithiol compound ([10]; in 100 g Dimethylformamide containing 5 weight % diethylene glycol monomethyl ether): 206 g; Amount by weight of dissolved dithiol compound ([10]; in 100 g N-Methyl-2-pyrrolidone): 222 g; Amount by weight of dissolved dithiol compound ([10]; in 100 g N-Vinyl-2-pyrrolidone): 117 g; Solubility ([10]; in Dimethylformamide containing 5 weight % diethylene glycol monomethyl ether): 67.3 weight %; Solubility ([10]; in N-Methyl-2-pyrrolidone): 68.9 weight %; Solubility ([10]; in N-Vinyl-2-pyrrolidone): 53.9 weight %
